Laboratory results published in US20230416265A1, “COMPOUNDS FOR THE DETECTION OF HEME OXYGENASE 1 (HO-1), AND METHODS AND USES INVOLVING THE SAME” (IMPERIAL COLLEGE INNOVATIONS LIMITED, priority 2020, published 2023).
Several values for one entry are separate records, joined by “and”; a condition that tells them apart may be missing. Identical values can stand only once.

Assays:
[1] = Photophysical studies in chloroform; format: physicochemical; conditions: 298 K; for Emission λmax [nm] / E [%] (FRET efficiency): λex = 320 nm; for Ø514 nm [%] (quantum yield): ± 20%, standard H2TPP in toluene (Ø514 nm = 0.11)
Method: UV-Visible absorption spectra were measured using an Agilent Technologies Cary 60 Spectrophotometer operating with VVinUV software. The sample was held in a quartz cuvette with a path length of 1 cm. Absorption spectra were recorded against a baseline of pure solvent in an optically matched cuvette with a scan rate of 600 nm/min and a data interval of 1.0 nm. Emission and excitation spectra were acquired on an Agilent Technologies Carry Eclipse Fluorescence Spectrophotometer, in quartz cuvettes with a path length of 1 cm. Emission and excitation spectra were collected with a scan rate of 120.0 nm/min, a delay interval of 1.0 nm and band-passes of 5 nm. […]
(§1) In the examples highlighted above, the sample concentration was […] in PBS buffer and 10 pM in chloroform. All measurements were performed at 298 K.

[2] = Photophysical studies in PBS buffer pH 7.4; format: physicochemical; conditions: PBS buffer pH 7.4, 20 μM, λex = 320 nm, 298 K
HO-1 = target: T1, HO-1 (Homo sapiens, UniProt P09601); test: Control experiment: quenching of coumarin 1i fluorescence on addition of HO-1 in E. coli lysates; format: biochemical; conditions: λex = 320 nm
T1 construct: made in house; host or cells: E. coli (lysate)
T1 sequence (P09601 1-288): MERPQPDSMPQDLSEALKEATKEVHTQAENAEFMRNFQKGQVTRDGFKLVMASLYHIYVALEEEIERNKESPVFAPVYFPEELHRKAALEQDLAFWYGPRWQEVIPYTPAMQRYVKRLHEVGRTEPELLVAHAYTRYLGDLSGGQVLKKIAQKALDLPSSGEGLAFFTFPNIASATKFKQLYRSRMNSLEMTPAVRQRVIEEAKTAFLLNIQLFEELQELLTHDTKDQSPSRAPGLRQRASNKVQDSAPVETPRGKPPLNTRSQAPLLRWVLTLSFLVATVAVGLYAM

[3] = Photophysical studies in PBS buffer pH 7.4; format: physicochemical; conditions: for E [%] (FRET efficiency): PBS buffer pH 7.4, 20 μM, 298 K; for Ø514 nm [%] (quantum yield): PBS buffer pH 7.4, 298 K, ± 20%, standard H2TPP in toluene (Ø514 nm = 0.11)
Method: UV-Visible absorption spectra were measured using an Agilent Technologies Cary 60 Spectrophotometer operating with VVinUV software. The sample was held in a quartz cuvette with a path length of 1 cm. Absorption spectra were recorded against a baseline of pure solvent in an optically matched cuvette with a scan rate of 600 nm/min and a data interval of 1.0 nm. Emission and excitation spectra were acquired on an Agilent Technologies Carry Eclipse Fluorescence Spectrophotometer, in quartz cuvettes with a path length of 1 cm. Emission and excitation spectra were collected with a scan rate of 120.0 nm/min, a delay interval of 1.0 nm and band-passes of 5 nm.
Measurements were recorded in aqueous solutions of PBS buffer at pH 7.4 in order to mimic physiological conditions.
as §1

| Compound | Emission λmax [nm] [1] | Emission λmax [nm] [2] | decrease in the emission intensity at 384 nm following addition of HO-1 (HO-1) | Ø514 nm [%] (quantum yield) [1] | E [%] (FRET efficiency) [1] | E [%] (FRET efficiency) ([3]; λex = 320 nm) | Ø514 nm [%] (quantum yield) [3] | porphyrin emission following Fe2+ complexation ([3]; PBS buffer and chloroform, λex = 320 nm) |
| --- | --- | --- | --- | --- | --- | --- | --- | --- |
| Cc1cc(=O)oc2cc(OCCBr)ccc12 [Compound 1f] | 382 nm | 384 nm and 383 ^[b] nm | – | – | – | – | – | – |
| Cc1cc(=O)oc2cc(OCCOc3ccc(C(=O)O)cc3)ccc12 [Compound 1i, 4-(2-((4-Methyl-2-oxo-2H-chromen-7-yl)oxy)ethoxy)benzoic acid] | 381 nm | 384 nm | 2.3 fold | – | – | – | – | – |
| COC(=O)CCC1=C(C)c2cc3[nH]c(c(C)c3C)c(-c3ccc(OCCOc4ccc5c(C)cc(=O)oc5c4)cc3)c3nc(cc4[nH]c(cc1n2)c(CCC(=O)OC)c4C)C(C)=C3C [Compound 1g] | 385 nm and 629 nm and 695 nm | 387 nm | – | 5.2% | 99.7% | 95.1% | 0.5% | – |
| Iron(11) dimethyl 3,3′-(3,7,8,12,13,17-hexamethyl-10-(4-(2-((4-methyl-2-oxo-2H-chromen-7-yl)oxy)ethoxy) phenyl)porp-hyrin-2,18-diyl)dipropionate [Compound 1h] | 385^[a], [b] nm | 387 ^[b], [c] nm | – | – | 98.7% | 99.2% | – | completely quenched |
| Cc1cc(=O)oc2cc(OCCOc3ccc(-c4c5nc(c(-c6ccccc6)c6ccc([nH]6)c(-c6ccccc6)c6nc(c(-c7ccccc7)c7ccc4[nH]7)C=C6)C=C5)cc3)ccc12 [Compound C3g, reference compound] | 379 nm and 654 nm and 719 nm | 383 nm | – | 17.4% | 96.6% | 96.8% | 2.0% | – |
